Results from patent US20090082350A1, “SOLUBLE EPOXIDE HYDROLASE INHIBITORS” (Arete Therapeutics, Inc., priority 2007, published 2009).

Key:
[1] = test system: soluble epoxide hydrolase (sEH); assay: Fluorescent assay for mouse and human soluble epoxide hydrolase (CMNPC substrate); assay type: biochemical
From the text: Fluorescent Assay for Mouse and Human Soluble Epoxide Hydrolase
Recombinant mouse sEH (MsEH) and human sEH (HsEH) were produced in a baculovirus expression system as previously reported. Grant et al., J. Biol. Chem., 268:17628-17633 (1993); Beetham et al., Arch. Biochem. Biophys., 305:197-201 (1993). The expressed proteins were purified from cell lysate by affinity chromatography. Wixtrom et al., Anal. Biochem., 169:71-80 (1988). Protein concentration was quantified using the Pierce BCA assay using bovine serum albumin as the calibrating standard. The preparations were at least 97% pure as judged by SDS-PAGE and scanning densitometry. They contained no detectable esterase or glutathione transferase activity which can interfere with the assay. The assay was also evaluated with similar results in crude cell lysates or homogenate of tissues.
The IC50s for each inhibitor were according to the following procedure:
Cyano(2-methoxynaphthalen-6-yl)methyl (3-phenyloxiran-2-yl)methyl carbonate (CMNPC; Jones P. D. et. al.; Analytical Biochemistry 2005; 343: pp. 66-75)
Bis/Tris HCl 25 mM pH 7.0 containing 0.1 mg/mL of BSA (buffer A)
CMNPC at 0.25 mM in DMSO.
Mother solution of enzyme in buffer A (Mouse sEH at 6 μg/mL and Human sEH at […]).
Inhibitor dissolved in DMSO at the appropriate concentration.
In a black 96 well plate, fill all the wells with 150 μL of buffer A.
Add 2 μL of DMSO in well A2 and A3, and then add 2 μL of inhibitor solution in A1 and A4 through A12.
Add […] of buffer A in row A, then mix several time and transfer 150 L to row B. Repeat this operation up to row H. The 150 L removed from row H go to the trash.
Add […] of buffer A in column 1 and 2, then add […] of enzyme solution to column 3 to 12.
Incubate the plate for 5 minutes in the plate reader at 30° C.
During incubation prepare the working solution of substrate by mixing 3.68 mL of buffer A (4×0.920 mL) with 266 μL (2×133 μL) of substrate solution).
At t=0, add 30 L of working substrate solution with multi-channel pipette labeled “Briggs 303” and start the reading ([S]final: 5 μM).
Read with ex: 330 nm (20 nm) and em: 465 nm (20 nm) every 30 second for 10 minutes. The velocities are used to analyze and calculate the IC50s.

[2] = inhibitor concentration 5000 nM
[3] = inhibitor concentration 50000 nM

| melting point [°C] | % Inh ([1]; inhibitor concentration 50 nM) [%] | Structure (SMILES) | other results |
| --- | --- | --- | --- |
|  |  | COc1ccc(-c2cc(NC(=O)NC34CC5CC(CC(C5)C3)C4)[nH]n2)cc1 [Compound 1, 1-adamantan-1-yl-3-(3-(4-methoxyphenyl)-1H-pyrazol-5-yl)urea] | % Inh [1, 2]: 89% |
| 228 to 231 |  | COc1ccc(-c2cc(NC(=O)Nc3ccc(C(F)(F)F)cc3)[nH]n2)cc1 [Compound 2, 1-(3-(4-methoxyphenyl)-1H-pyrazol-5-yl)-3-(4-(trifluoromethyl)phenyl)urea] | % Inh ([1]; inhibitor concentration 500 nM): 89% |
| 250 to 253 | 98 | O=C(Nc1ccc(C(F)(F)F)cc1)Nc1ccc(C(=O)N2CCOCC2)s1 [Compound 3, 1-(5-(morpholine-4-carbonyl)thiophen-2-yl)-3-(4-(trifluoromethyl)phenyl)urea] |  |
| 252 to 254 | 77 | CC(=O)Nc1ccc(NC(=O)NC23CC4CC(CC(C4)C2)C3)cn1 [Compound 4, N-(5-(3-adamantylureido)pyridin-2-yl)acetamide] |  |
| 189 to 194 |  | COc1ccc(-c2cc(NC(=O)Nc3cccc(C(F)(F)F)c3)[nH]n2)cc1 [Compound 5, 1-(3-(4-methoxyphenyl)-1H-pyrazol-5-yl)-3-(3-(trifluoromethyl)phenyl)urea] | % Inh [1, 2]: 92% |
| 269 to 271 |  | CC(=O)Nc1ccc(NC(=O)Nc2ccc(Cl)cc2)cn1 [Compound 6, N-(5-(3-(4-chlorophenyl)ureido)pyridin-2-yl)acetamide] | % Inh ([1]; inhibitor concentration 500 nM): 87% |
| 205 to 211 | 64 | COc1ccc(NC(=O)NC23CC4CC(CC(C4)C2)C3)cn1 [Compound 7, 1-adamantan-1-yl-3-(6-methoxypyridin-3-yl)urea] |  |
| 233 to 237 |  | O=C(Nc1ccc(C(F)(F)F)cc1)Nc1ccc(C(=O)N2CCOCC2)cn1 [Compound 8, 1-(5-(morpholine-4-carbonyl)pyridin-2-yl)-3-(4-(trifluoromethyl)phenyl)urea] | % Inh ([1]; inhibitor concentration 500 nM): 69% |
| 324 to 328 |  | COc1ccc(-c2nnc(NC(=O)NC34CC5CC(CC(C5)C3)C4)s2)cc1 [Compound 9, 1-adamantan-1-yl-3-(5-(4-methoxyphenyl)-1,3,4-thiadiazol-2-yl)urea] | % Inh [1, 3]: 37% |
| 331 to 336 |  | COc1ccc(-c2nnc(NC(=O)Nc3cccc(C(F)(F)F)c3)s2)cc1 [Compound 10, 1-(5-(4-methoxyphenyl)-1,3,4-thiadiazol-2-yl)-3-(3-(trifluoromethyl)phenyl)urea] | % Inh ([1]; inhibitor concentration 12500 nM): 39% |
| 242 to 245 | 76 | O=C(Nc1ccc(Cl)cc1)Nc1ccc(C(=O)N2CCOCC2)s1 [Compound 11, 1-(4-chlorophenyl)-3-(5-(morpholine-4-carbonyl)thiophen-2-yl)urea] |  |
| 208 to 210 |  | O=C(Nc1ccc(C(F)(F)F)cc1)Nc1cccc(C(=O)N2CCOCC2)n1 [Compound 12, 1-(6-(morpholine-4-carbonyl)pyridin-2-yl)-3-(4-(trifluoromethyl)phenyl)urea] | % Inh [1, 3]: 96% |
| 250 to 253 | 73 | O=C(Nc1ccc(C(F)(F)F)cc1)Nc1cc(C(=O)N2CCOCC2)cs1 [Compound 13, 1-(4-(morpholine-4-carbonyl)thiophen-2-yl)-3-(4-(trifluoromethyl)phenyl)urea] |  |
| 210 to 215 |  | O=C(Nc1cccc(C(F)(F)F)c1)Nc1cc(C(=O)N2CCOCC2)cs1 [Compound 14, 1-(4-(morpholine-4-carbonyl)thiophen-2-yl)-3-(3-(trifluoromethyl)phenyl)urea] | % Inh [1, 2]: 89% |
|  | 90 | O=C(Nc1ccc(C(F)(F)F)cc1)Nc1ccc(Oc2ccccc2)nc1 [Compound 15, 1-(6-phenoxypyridin-3-yl)-3-(4-(trifluoromethyl)phenyl)urea] |  |
| 185 to 188 | 95 | O=C(Nc1ccc(Oc2ccccc2)nc1)NC12CC3CC(CC(C3)C1)C2 [Compound 16, 1-adamantan-1-yl-3-(6-phenoxypyridin-3-yl)urea] |  |
| 200 to 206 |  | O=C(Nc1ccc(C(F)(F)F)cc1)Nc1cc(C(=O)N2CCOCC2)ccn1 [Compound 17, 1-(4-(morpholine-4-carbonyl)pyridin-2-yl)-3-(4-(trifluoromethyl)phenyl)urea] | % Inh ([1]; inhibitor concentration 500 nM): 91% |
| 205 to 208 |  | O=C(Nc1ccc(Cl)cc1)Nc1cccc(C(=O)N2CCOCC2)n1 [Compound 18, 1-(4-chlorophenyl)-3-(6-(morpholine-4-carbonyl)pyridin-2-yl)urea] | % Inh [1, 3]: 87% |
| 189 to 192 |  | O=C(Nc1ccc(Cl)cc1)Nc1cc(C(=O)N2CCOCC2)ccn1 [Compound 19, 1-(4-chlorophenyl)-3-(4-(morpholine-4-carbonyl)pyridin-2-yl)urea] | % Inh ([1]; inhibitor concentration 500 nM): 72% |
| 175 to 179 |  | O=C(Nc1cccc(C(F)(F)F)c1)Nc1cccc(C(=O)N2CCOCC2)n1 [Compound 20, 1-(6-(morpholine-4-carbonyl)pyridin-2-yl)-3-(3-(trifluoromethyl)phenyl)urea] | % Inh [1, 3]: 96% |
|  |  | CCOC(=O)c1cnc(NC(=O)NC23CC4CC(CC(C4)C2)C3)s1 [Compound 21, ethyl 2-(3-adamantylureido)thiazole-5-carboxylate] | % Inh ([1]; inhibitor concentration 500 nM): 97% |
| 165 to 170 |  | COc1ccc(-c2cc(NC(=O)Nc3ccc(Cl)cc3)on2)cc1 [Compound 22, 1-(4-chlorophenyl)-3-(3-(4-methoxyphenyl)isoxazol-5-yl)urea] | % Inh [1, 2]: 92% |
| 114 to 118 |  | O=C(Nc1ccc(C(F)(F)F)cc1)Nc1cncc(C(=O)N2CCOCC2)c1 [Compound 23, 1-(5-(morpholine-4-carbonyl)pyridin-3-yl)-3-(4-(trifluoromethyl)phenyl)urea] | % Inh ([1]; inhibitor concentration 500 nM): 75% |
| 75 to 80 |  | O=C(Nc1cncc(C(=O)N2CCOCC2)c1)Nc1cccc(C(F)(F)F)c1 [Compound 24, 1-(5-(morpholine-4-carbonyl)pyridin-3-yl)-3-(3-(trifluoromethyl)phenyl)urea] | % Inh [1, 2]: 60% |
|  |  | O=C(Nc1ncc(C(=O)O)s1)NC12CC3CC(CC(C3)C1)C2 [Compound 25, 2-(3-adamantylureido)thiazole-5-carboxylic acid] | % Inh [1, 3]: 81% |
|  | 91 | CCOC(=O)c1nnc(NC(=O)NC23CC4CC(CC(C4)C2)C3)s1 [Compound 26, ethyl 5-(3-adamantylureido)-1,3,4-thiadiazole-2-carboxylate] |  |
